Assay results published in patent US4864023A, “Pyrido(3,2,1-IJ)-1,3,4-benzoxadiazine derivatives” (priority 1988, dated 1989).
Values after ≈ are worked out from the molar mass of the structure shown. Like-named read-outs stand apart in the source and are kept apart here.

Legend:
Experiment in all cases: in vitro antibacterial activity, standard agar dilution method
Type in all cases: cell-based
[1] = test system: Bacillus subtilis PCI 219; conditions: PCI219, aerobic, read-out: minimum inhibitory concentration (MIC)
[2] = test system: Klebsiella pneumoniae FDA PCI 602; conditions: FDAPCI602, aerobic, read-out: minimum inhibitory concentration (MIC)
[3] = test system: Serratia marcescens IFO 12648; conditions: IFO12648, aerobic, read-out: minimum inhibitory concentration (MIC)
[4] = test system: Pseudomonas aeruginosa A3; conditions: aerobic, read-out: minimum inhibitory concentration (MIC)
[5] = test system: Escherichia coli NIHJ JC-2; conditions: NIHJJC2, aerobic, read-out: minimum inhibitory concentration (MIC)
[6] = test system: Proteus rettgeri ATCC 14505; conditions: Providencia rettgeri, ATCC14505, aerobic, read-out: minimum inhibitory concentration (MIC)
[7] = test system: Enterococcus faecalis NR 2943; conditions: NR2943, aerobic, read-out: minimum inhibitory concentration (MIC)
[8] = test system: Staphylococcus aureus Smith; conditions: read-out: minimum inhibitory concentration (MIC)
[9] = test system: Staphylococcus epidermidis IFO 12993; conditions: IFO12993, aerobic, read-out: minimum inhibitory concentration (MIC)
[10] = test system: Pseudomonas stutzeri IFO 12695; conditions: Stutzerimonas stutzeri, IFO12695, aerobic, read-out: minimum inhibitory concentration (MIC)
[11] = test system: Staphylococcus aureus FDA 209P JC-1; conditions: FDA209P; Staphylococcus aureus FDA 209P JC-1; aerobic; agar dilution; read-out: minimum inhibitory concentration (MIC)
[12] = test system: Citrobacter freundii IFO 12681; conditions: IFO12681, aerobic, read-out: minimum inhibitory concentration (MIC)
[13] = test system: Pseudomonas aeruginosa NR 2950; conditions: NR2950, aerobic, read-out: minimum inhibitory concentration (MIC)
[14] = test system: Escherichia coli NR 2630; conditions: NR2630; Escherichia coli NR 2630; aerobic; agar dilution; read-out: minimum inhibitory concentration (MIC)
[15] = test system: Proteus vulgaris OX19 ATCC 6898; conditions: ATCC6898, aerobic, read-out: minimum inhibitory concentration (MIC)
[16] = test system: Enterobacter aerogenes NR 2945; conditions: Klebsiella aerogenes, NR2945, aerobic, read-out: minimum inhibitory concentration (MIC)
[17] = test system: Enterobacter cloacae NR 2946; conditions: NR2946, aerobic, read-out: minimum inhibitory concentration (MIC)
[18] = test system: Bordetella bronchiseptica ATCC 4617; conditions: ATCC4617, aerobic, read-out: minimum inhibitory concentration (MIC)
[19] = test system: Staphylococcus aureus NR 2855; conditions: NR2855; Staphylococcus aureus NR 2855; aerobic; agar dilution; read-out: minimum inhibitory concentration (MIC)
[20] = test system: Salmonella typhimurium IFO 12529; conditions: Salmonella enterica, aerobic, read-out: minimum inhibitory concentration (MIC)
[21] = test system: Alcaligenes faecalis IFO 13111; conditions: IFO13111, aerobic, read-out: minimum inhibitory concentration (MIC)
[22] = test system: Staphylococcus epidermidis NR 2942; conditions: NR2942, aerobic, read-out: minimum inhibitory concentration (MIC)
[23] = Staphylococcus aureus Smith, aerobic, agar dilution

Row | Structure (SMILES) | MIC [1] | MIC [2] | MIC [3] | MIC [4] | MIC [5] | MIC [6] | MIC [7] | MIC [9] | MIC [10] | MIC [11] | MIC [12] | MIC [13] | MIC [14] | MIC [15] | MIC [16] | MIC [17] | MIC [18] | MIC [19] | MIC [20] | MIC [21] | other results
1 | CC(=O)CCN1CCN(c2c(F)cc3c(=O)c(C(=O)O)cn4c3c2OCN4C)CC1 [Example 51, 9-fluoro-3-methyl-7-oxo-10-[4-(3-oxo-n-butyl)-1-piperazinyl]-2,3-dihydro-7H-pyrido[3,2,1-ij]-1,3,4-benzoxadiazine-6-carboxylic acid] | 0.1 µg/mL (≈ 0.239 µM) | 0.2 µg/mL (≈ 0.478 µM) | 0.1 µg/mL (≈ 0.239 µM) | 0.1 µg/mL (≈ 0.239 µM) | 0.1 µg/mL (≈ 0.239 µM) | 0.2 µg/mL (≈ 0.478 µM) | 12.5 µg/mL (≈ 29.9 µM) | 0.78 µg/mL (≈ 1.86 µM) | 0.05 µg/mL (≈ 0.119 µM) | 0.2 µg/mL (≈ 0.478 µM) | 0.025 µg/mL (≈ 0.0597 µM) | 1.56 µg/mL (≈ 3.73 µM) | 0.025 µg/mL (≈ 0.0597 µM) | 0.025 µg/mL (≈ 0.0597 µM) | 0.025 µg/mL (≈ 0.0597 µM) | 0.05 µg/mL (≈ 0.119 µM) | 1.56 µg/mL (≈ 3.73 µM) | 1.56 µg/mL (≈ 3.73 µM) | 0.025 µg/mL (≈ 0.0597 µM) | 3.13 µg/mL (≈ 7.48 µM) | MIC ([8]; Staphylococcus aureus): 0.39 µg/mL (≈ 0.932 µM); MIC [22]: 0.78 µg/mL (≈ 1.86 µM)
2 | CN1COc2c(N3CCN(Cc4ccc(N)cc4)CC3)c(F)cc3c(=O)c(C(=O)O)cn1c23 [Example 53, 10-[4-(4-aminobenzyl)-1-piperazinyl]-9-fluoro-3-methyl-7-oxo-2,3-dihydro-7H-pyrido[3,2,1-ij]-1,3,4-benzoxadiazine-6-carboxylic acid] | 0.025 µg/mL (≈ 0.0551 µM) | 0.39 µg/mL (≈ 0.86 µM) | 0.78 µg/mL (≈ 1.72 µM) | 0.78 µg/mL (≈ 1.72 µM) | 0.2 µg/mL (≈ 0.441 µM) | 1.56 µg/mL (≈ 3.44 µM) | 1.56 µg/mL (≈ 3.44 µM) | 0.1 µg/mL (≈ 0.221 µM) | 0.2 µg/mL (≈ 0.441 µM) | 0.1 µg/mL (≈ 0.221 µM) | 0.1 µg/mL (≈ 0.221 µM) | 12.5 µg/mL (≈ 27.6 µM) | 0.05 µg/mL (≈ 0.11 µM) | 0.1 µg/mL (≈ 0.221 µM) | 0.1 µg/mL (≈ 0.221 µM) | 0.2 µg/mL (≈ 0.441 µM) | 0.78 µg/mL (≈ 1.72 µM) | 0.1 µg/mL (≈ 0.221 µM) | 0.1 µg/mL (≈ 0.221 µM) | 3.13 µg/mL (≈ 6.9 µM) | MIC [8, 23]: 0.05 µg/mL (≈ 0.11 µM); MIC [22]: 0.1 µg/mL (≈ 0.221 µM)
3 | CC1Oc2c(N3CCN(C)CC3)c(F)cc3c(=O)c(C(=O)O)cn(c23)N1C (centres unmarked) [Example 26] | 0.78 µg/mL (≈ 2.07 µM) | 3.13 µg/mL (≈ 8.32 µM) | 1.56 µg/mL (≈ 4.14 µM) | 6.25 µg/mL (≈ 16.6 µM) | 0.78 µg/mL (≈ 2.07 µM) | 6.25 µg/mL (≈ 16.6 µM) | 25 µg/mL (≈ 66.4 µM) | 3.13 µg/mL (≈ 8.32 µM) | 0.78 µg/mL (≈ 2.07 µM) | 3.13 µg/mL (≈ 8.32 µM) | 0.78 µg/mL (≈ 2.07 µM) | 50 µg/mL (≈ 133 µM) | 0.2 µg/mL (≈ 0.531 µM) | 0.39 µg/mL (≈ 1.04 µM) | 0.2 µg/mL (≈ 0.531 µM) | 0.78 µg/mL (≈ 2.07 µM) | 12.5 µg/mL (≈ 33.2 µM) | 1.56 µg/mL (≈ 4.14 µM) | 0.78 µg/mL (≈ 2.07 µM) | 12.5 µg/mL (≈ 33.2 µM) | MIC [8, 23]: 3.13 µg/mL (≈ 8.32 µM); MIC [22]: 3.13 µg/mL (≈ 8.32 µM)
4 | CN1COc2c(N3CCC(N)C3)c(F)cc3c(=O)c(C(=O)OCOC(=O)C(C)(C)C)cn1c23 (centres unmarked) [Example 63, pivaloyloxymethyl 10-(3-amino-1-pyrrolidinyl)-9-fluoro-3-methyl-7-oxo-2,3-dihydro-7H-pyrido[3,2,1-ij]-1,3,4-benzoxadiazine-6-carboxylate] | 0.78 µg/mL (≈ 1.69 µM) | 6.25 µg/mL (≈ 13.5 µM) | 3.13 µg/mL (≈ 6.77 µM) | 3.13 µg/mL (≈ 6.77 µM) | 1.56 µg/mL (≈ 3.37 µM) | 6.25 µg/mL (≈ 13.5 µM) | 25 µg/mL (≈ 54.1 µM) | 1.56 µg/mL (≈ 3.37 µM) | 0.39 µg/mL (≈ 0.843 µM) | 0.78 µg/mL (≈ 1.69 µM) | 0.78 µg/mL (≈ 1.69 µM) | 25 µg/mL (≈ 54.1 µM) | 0.78 µg/mL (≈ 1.69 µM) | 0.39 µg/mL (≈ 0.843 µM) | 0.39 µg/mL (≈ 0.843 µM) | 1.56 µg/mL (≈ 3.37 µM) | 50 µg/mL (≈ 108 µM) | 3.13 µg/mL (≈ 6.77 µM) | 0.78 µg/mL (≈ 1.69 µM) | 100 µg/mL (≈ 216 µM) | MIC ([8]; Staphylococcus aureus): 0.39 µg/mL (≈ 0.843 µM); MIC [22]: 0.78 µg/mL (≈ 1.69 µM)
5 | COC1CCN(c2c(F)cc3c(=O)c(C(=O)O)cn4c3c2OCN4C)CC1 [Example 38, 9-fluoro-10-(4-methoxy-1-piperidyl)-3-methyl-7-oxo-2,3-dihydro-7H-pyrido[3,2,1-ij]-1,3,4-benzoxadiazine-6-carboxylic acid] | ≤ 0.0008 µg/mL | 25 µg/mL (≈ 66.2 µM) | 12.5 µg/mL (≈ 33.1 µM) | 25 µg/mL (≈ 66.2 µM) | 6.25 µg/mL (≈ 16.6 µM) | 25 µg/mL (≈ 66.2 µM) | 12.5 µg/mL (≈ 33.1 µM) | 0.39 µg/mL (≈ 1.03 µM) | 6.25 µg/mL (≈ 16.6 µM) | 0.39 µg/mL (≈ 1.03 µM) | 6.25 µg/mL (≈ 16.6 µM) | 50 µg/mL (≈ 132 µM) | 0.39 µg/mL (≈ 1.03 µM) | 3.13 µg/mL (≈ 8.29 µM) | 3.13 µg/mL (≈ 8.29 µM) | 6.25 µg/mL (≈ 16.6 µM) | 6.25 µg/mL (≈ 16.6 µM) | 0.2 µg/mL (≈ 0.53 µM) | 6.25 µg/mL (≈ 16.6 µM) | 6.25 µg/mL (≈ 16.6 µM) | MIC [8, 23]: 0.1 µg/mL (≈ 0.265 µM); MIC [22]: 0.39 µg/mL (≈ 1.03 µM)
